Biological target: Coagulation factor X (Homo sapiens, UniProt P00742)
Test: Binding affinity for human factor Xa

Chain of Coagulation factor X (P00742 41-179 limits assumed): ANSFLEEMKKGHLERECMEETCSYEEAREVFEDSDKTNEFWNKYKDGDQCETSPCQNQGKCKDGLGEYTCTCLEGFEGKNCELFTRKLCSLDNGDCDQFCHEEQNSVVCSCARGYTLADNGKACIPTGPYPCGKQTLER
Chain of Coagulation factor X (P00742 235-488 limits assumed): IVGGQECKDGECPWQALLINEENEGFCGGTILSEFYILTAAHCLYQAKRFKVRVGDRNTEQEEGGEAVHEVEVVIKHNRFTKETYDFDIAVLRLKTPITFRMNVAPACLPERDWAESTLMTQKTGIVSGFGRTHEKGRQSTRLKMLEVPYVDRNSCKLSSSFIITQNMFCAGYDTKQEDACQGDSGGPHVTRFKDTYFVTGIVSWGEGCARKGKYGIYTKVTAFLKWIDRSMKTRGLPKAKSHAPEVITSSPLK

| Ki [nM] | SMILES |
| --- | --- |
| 0.07 | Cc1cccc2c(C#N)c(C(=O)NC3CCN(C(C)C)CC3)n(Cc3cc(-c4ccc(Cl)s4)on3)c12 |
| 3 | Cc1c(C(=O)NC2CCN(C(C)C)CC2)n(Cc2cc(-c3ccc(Cl)s3)on2)c2ccccc12 |
| 1 | Cc1ccc(C)c2c1cc(C(=O)NC1CCN(C(C)C)CC1)n2Cc1cc(-c2ccc(Cl)s2)on1 |
| 3 | CC(C)N1CCC(NC(=O)c2cc3cc(F)ccc3n2Cc2cc(-c3ccc(Cl)s3)on2)CC1 |
| 0.3 | CC(C)N1CCC(NC(=O)c2c(C#N)c3ccccc3n2Cc2cc(-c3ccc(Cl)s3)on2)CC1 |
| 7 | CC(C)N1CCC(NC(=O)c2cc3c(Cl)cccc3n2Cc2cc(-c3ccc(Cl)s3)on2)CC1 |
| 0.1 | CC(C)N1CCC(NC(=O)c2cc3cccc([N+](=O)[O-])c3n2Cc2cc(-c3cc(Cl)cs3)on2)CC1 |
| 3 | Cc1cccc2cc(C(=O)NC3CCN(C(C)C)CC3)n(CC(=O)Nc3ccc(Cl)cc3)c12 |
| 0.7 | CC(C)N1CCC(NC(=O)c2cc3cccc(Cl)c3n2Cc2cc(-c3ccc(Cl)s3)on2)CC1 |
| 26 | Cc1cccc2c(C#N)c(C(=O)NC3CCN(C(C)C)CC3)n(CC(=O)Nc3ccc(Cl)cc3)c12 |
| 9 | CC(C)N1CCC(NC(=O)c2cc3cc(Br)ccc3n2Cc2cc(-c3ccc(Cl)s3)on2)CC1 |
| 7 | CC(C)N1CCC(NC(=O)c2c(C#N)c3cc(S(C)(=O)=O)ccc3n2Cc2cc(-c3ccc(Cl)s3)on2)CC1 |
| 406 | COc1cccc(Cn2c(C(=O)NC3CCN(C(C)C)CC3)c(C#N)c3cccc(C)c32)c1 |
| 18 | Cc1ccc2cc(C(=O)NC3CCN(C(C)C)CC3)n(Cc3cc(-c4ccc(Cl)s4)on3)c2c1 |
| 25 | Cc1cccc2c1cc(C(=O)NC1CCN(C(C)C)CC1)n2CC(=O)Nc1ccc(C(=N)N)cc1 |
